Measured values taken from PubChem BioAssay (NCI).
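96-well plates; 48 h exposure; 5 concentrations. Endpoints by linear interpolation between flanking doses. Not reached: highest tested concentration assigned. At the TGI there is no net growth.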

Legend:
Experiment in all cases: NCI-60 cell line screen, 48 h
LOX IMVI melanoma = tested on: LOX IMVI melanoma
786-0 renal = tested on: 786-0 renal
RXF 393 renal = tested on: RXF 393 renal
MOLT-4 leukemia = tested on: MOLT-4 leukemia
HOP-62 NSCLC = tested on: HOP-62 NSCLC
TK-10 renal = tested on: TK-10 renal
M14 melanoma = tested on: M14 melanoma
OVCAR-8 ovarian = tested on: OVCAR-8 ovarian
SK-MEL-5 melanoma = tested on: SK-MEL-5 melanoma
MALME-3M melanoma = tested on: MALME-3M melanoma
RXF-631 renal = tested on: RXF-631 renal
A549 NSCLC = tested on: A549 NSCLC
UACC-62 melanoma = tested on: UACC-62 melanoma
OVCAR-3 ovarian = tested on: OVCAR-3 ovarian
KM20L2 colon = tested on: KM20L2 colon
DMS 273 small cell lung = tested on: DMS 273 small cell lung
U251 CNS = tested on: U251 CNS
SNB-19 CNS = tested on: SNB-19 CNS
EKVX NSCLC = tested on: EKVX NSCLC
UO-31 renal = tested on: UO-31 renal
SF-268 CNS = tested on: SF-268 CNS
A498 renal = tested on: A498 renal
HCC-2998 colon = tested on: HCC-2998 colon
OVCAR-5 ovarian = tested on: OVCAR-5 ovarian
SK-MEL-28 melanoma = tested on: SK-MEL-28 melanoma
COLO 205 colon = tested on: COLO 205 colon
OVCAR-4 ovarian = tested on: OVCAR-4 ovarian
ACHN renal = tested on: ACHN renal
SNB-75 CNS = tested on: SNB-75 CNS
M19-MEL melanoma = tested on: M19-MEL melanoma
HCT-15 colon = tested on: HCT-15 colon
NCI-H23 lung = tested on: NCI-H23 lung
SK-MEL-2 melanoma = tested on: SK-MEL-2 melanoma
UACC-257 melanoma = tested on: UACC-257 melanoma
SF-539 CNS = tested on: SF-539 CNS
DMS 114 small cell lung = tested on: DMS 114 small cell lung
SNB-78 CNS = tested on: SNB-78 CNS
SK-OV-3 ovarian = tested on: SK-OV-3 ovarian
NCI-H460 lung = tested on: NCI-H460 lung
HT29 colon = tested on: HT29 colon
DLD-1 colon = tested on: DLD-1 colon
IGROV1 ovarian = tested on: IGROV1 ovarian
SW-620 colon = tested on: SW-620 colon
CCRF-CEM leukemia = tested on: CCRF-CEM leukemia
CAKI-1 renal = tested on: CAKI-1 renal
SN12C renal = tested on: SN12C renal
SF-295 CNS = tested on: SF-295 CNS
LXFL 529 NSCLC = tested on: LXFL 529 NSCLC
RPMI-8226 leukemia = tested on: RPMI-8226 leukemia
K-562 leukemia = tested on: K-562 leukemia
HOP-18 NSCLC = tested on: HOP-18 NSCLC
KM12 colon = tested on: KM12 colon
NCI-H226 lung = tested on: NCI-H226 lung
HOP-92 NSCLC = tested on: HOP-92 NSCLC
SR leukemia = tested on: SR leukemia
NCI-H522 lung = tested on: NCI-H522 lung
HCT-116 colon = tested on: HCT-116 colon
HL-60(TB) leukemia = tested on: HL-60(TB) leukemia

In the case of `CC1CCCP(=O)(c2ccccc2)CC1` (stereo not drawn), the TGI (LOX IMVI melanoma) was > 100 µM, the TGI (786-0 renal) was > 100 µM and the TGI (RXF 393 renal) was > 100 µM. The TGI (MOLT-4 leukemia) was > 100 µM, the TGI (HOP-62 NSCLC) was > 100 µM and the TGI (TK-10 renal) was > 100 µM. The TGI (M14 melanoma) was > 100 µM, the TGI (OVCAR-8 ovarian) was > 100 µM and the TGI (SK-MEL-5 melanoma) was > 100 µM. The TGI (MALME-3M melanoma) was > 100 µM, the TGI (RXF-631 renal) was > 100 µM and the TGI (A549 NSCLC) was > 100 µM. The TGI (UACC-62 melanoma) was > 100 µM, the TGI (OVCAR-3 ovarian) was > 100 µM and the TGI (KM20L2 colon) was > 100 µM. The TGI (DMS 273 small cell lung) was > 100 µM, the TGI (U251 CNS) was > 100 µM and the TGI (SNB-19 CNS) was > 100 µM. For the same compound, the TGI (EKVX NSCLC) was > 100 µM, the TGI (UO-31 renal) was > 100 µM and the TGI (SF-268 CNS) was > 100 µM. For the same compound, the TGI (A498 renal) was > 100 µM, the TGI (HCC-2998 colon) was > 100 µM and the TGI (OVCAR-5 ovarian) was > 100 µM. For the same compound, the TGI (SK-MEL-28 melanoma) was > 100 µM, the TGI (COLO 205 colon) was > 100 µM and the TGI (OVCAR-4 ovarian) was > 100 µM. The TGI (ACHN renal) was > 100 µM, the TGI (SNB-75 CNS) was > 100 µM and the TGI (M19-MEL melanoma) was > 100 µM. For the same compound, the TGI (HCT-15 colon) was > 100 µM, the TGI (NCI-H23 lung) was > 100 µM and the TGI (SK-MEL-2 melanoma) was > 100 µM. The TGI (UACC-257 melanoma) was > 100 µM, the TGI (SF-539 CNS) was > 100 µM and the TGI (DMS 114 small cell lung) was > 100 µM. The TGI (SNB-78 CNS) was > 100 µM, the TGI (SK-OV-3 ovarian) was > 100 µM and the TGI (NCI-H460 lung) was > 100 µM. The TGI (HT29 colon) was > 100 µM, the TGI (DLD-1 colon) was > 100 µM and the TGI (IGROV1 ovarian) was > 100 µM. The TGI (SW-620 colon) was > 100 µM, the TGI (CCRF-CEM leukemia) was > 100 µM and the TGI (CAKI-1 renal) was > 100 µM. The TGI (SN12C renal) was > 100 µM, the TGI (SF-295 CNS) was > 100 µM and the TGI (LXFL 529 NSCLC) was > 100 µM. For the same compound, the TGI (RPMI-8226 leukemia) was > 100 µM, the TGI (K-562 leukemia) was > 100 µM and the TGI (HOP-18 NSCLC) was 0.958 µM. The TGI (KM12 colon) was > 100 µM.
In the case of `O=c1c(O)c(-c2ccccc2)n(O)c2ccc(Cl)cc12`, the TGI (LOX IMVI melanoma) was 27.2 µM, the TGI (NCI-H226 lung) was 45.1 µM and the TGI (786-0 renal) was > 100 µM. For the same compound, the TGI (RXF 393 renal) was 63 µM, the TGI (MOLT-4 leukemia) was > 100 µM and the TGI (HOP-62 NSCLC) was 60.3 µM. For the same compound, the TGI (TK-10 renal) was 72.3 µM, the TGI (M14 melanoma) was > 100 µM and the TGI (HOP-92 NSCLC) was 96.5 µM. The TGI (OVCAR-8 ovarian) was 52.1 µM, the TGI (SK-MEL-5 melanoma) was 42.1 µM and the TGI (MALME-3M melanoma) was > 100 µM. The TGI (RXF-631 renal) was > 100 µM, the TGI (A549 NSCLC) was > 100 µM and the TGI (SR leukemia) was > 100 µM. The TGI (UACC-62 melanoma) was 55.3 µM, the TGI (OVCAR-3 ovarian) was > 100 µM and the TGI (KM20L2 colon) was 83.9 µM. For the same compound, the TGI (DMS 273 small cell lung) was 58.6 µM, the TGI (U251 CNS) was > 100 µM and the TGI (SNB-19 CNS) was > 100 µM. For the same compound, the TGI (UO-31 renal) was > 100 µM, the TGI (SF-268 CNS) was > 100 µM and the TGI (NCI-H522 lung) was 51.7 µM. It also gave a TGI (A498 renal) of 78.4 µM, a TGI (HCC-2998 colon) of 40.1 µM and a TGI (OVCAR-5 ovarian) of 95.3 µM. The TGI (SK-MEL-28 melanoma) was > 100 µM, the TGI (COLO 205 colon) was > 100 µM and the TGI (OVCAR-4 ovarian) was > 100 µM. For the same compound, the TGI (ACHN renal) was 74 µM, the TGI (SNB-75 CNS) was 80.8 µM and the TGI (HCT-15 colon) was 49.6 µM. For the same compound, the TGI (NCI-H23 lung) was > 100 µM, the TGI (SK-MEL-2 melanoma) was 58.6 µM and the TGI (UACC-257 melanoma) was > 100 µM. The TGI (SF-539 CNS) was 48 µM, the TGI (DMS 114 small cell lung) was 54.9 µM and the TGI (SNB-78 CNS) was > 100 µM. The TGI (SK-OV-3 ovarian) was 78.6 µM, the TGI (NCI-H460 lung) was 69.2 µM and the TGI (HT29 colon) was > 100 µM. The TGI (DLD-1 colon) was > 100 µM, the TGI (HCT-116 colon) was 24.6 µM and the TGI (IGROV1 ovarian) was 89.9 µM. For the same compound, the TGI (HL-60(TB) leukemia) was 62.8 µM, the TGI (SW-620 colon) was 34.5 µM and the TGI (CCRF-CEM leukemia) was > 100 µM. The TGI (CAKI-1 renal) was 71.1 µM, the TGI (SN12C renal) was 49.8 µM and the TGI (SF-295 CNS) was > 100 µM. For the same compound, the TGI (LXFL 529 NSCLC) was 64 µM, the TGI (RPMI-8226 leukemia) was > 100 µM and the TGI (K-562 leukemia) was > 100 µM. For the same compound, the TGI (HOP-18 NSCLC) was > 100 µM and the TGI (KM12 colon) was 80.9 µM.
